Patent publication US11219618B2, “Pyridylpyridone compounds” (Sprint Bioscience AB, priority 2017, dated 2022)

Tests used:
[1] = test system: autophagy in HOS cells (GFP-LC3); assay: High content screening autophagy assay (GFP-LC3 foci); type: cell-based; conditions: Homo sapiens; HOS cells expressing GFP-LC3; autophagy activated with KU-0063794 500 nM plus Bafilomycin A1 5 nM; 6 hours; foci area per cell; read-out: Median IC50 (μM) Cellular assay
Experimental: Human osteosarcoma cells (HOS) stably expressing a Green Fluorescent Protein (GFP) tagged LC3 (GFP-LC3) were used to determine the inhibitory effect on autophagy of proprietary compounds. For that purpose, autophagy was activated by using the mTOR inhibitor KU-0063794 at 500 nM in the presence of Bafilomycin A1 (Sigma-Aldrich) at 5 nM. Shortly, cells were plated overnight in clear bottom 96-well plates in DMEM—High Modified media (Hi-Clone Cat #SH30285.01). At the start of the experiment, the media was removed and replaced with fresh media containing the mTOR inhibitor, Bafilomycin A1 and the vehicle or a test compound as indicated. After 6 hours the media was removed, cells were washed twice with ice-cold phosphate buffered saline (PBS) and fixed with 4% paraformaldehyde for 20 minutes at room temperature. Then the cells were washed twice with ice-cold PBS before adding Hoechst 33342 at 1 μg/ml in PBS for nuclear staining. After incubation overnight at 4° C., cells were washed once with PBS to remove the excess of dye and 100 μl of PBS was added to each well. Images were acquired at 20× magnification, 6 images per well, using the ImageXpress automated microscope (Molecular Devices Inc.) and analyzed with MetaXpress software to identify LC3-GFP foci. Foci area per cell values were used to generate dose response curves and […] were calculated using the non-linear fitting analysis in GraphPad Prism software.
The results of the assay are shown in Table 2 (Median IC50 μM HOS-LC3).

Vps34 enzyme = Vps34 enzyme (Homo sapiens (Human), UniProt Q8NEB9); assay: Vps34 biochemical assay (Adapta kinase assay); conditions: 20 μM ATP and 200 μM PI:PS in substrate mix, 1 h at room temperature, TR-FRET, read-out: Median IC50 nM Adapta
Sequence of Vps34 enzyme (Q8NEB9 whole entry): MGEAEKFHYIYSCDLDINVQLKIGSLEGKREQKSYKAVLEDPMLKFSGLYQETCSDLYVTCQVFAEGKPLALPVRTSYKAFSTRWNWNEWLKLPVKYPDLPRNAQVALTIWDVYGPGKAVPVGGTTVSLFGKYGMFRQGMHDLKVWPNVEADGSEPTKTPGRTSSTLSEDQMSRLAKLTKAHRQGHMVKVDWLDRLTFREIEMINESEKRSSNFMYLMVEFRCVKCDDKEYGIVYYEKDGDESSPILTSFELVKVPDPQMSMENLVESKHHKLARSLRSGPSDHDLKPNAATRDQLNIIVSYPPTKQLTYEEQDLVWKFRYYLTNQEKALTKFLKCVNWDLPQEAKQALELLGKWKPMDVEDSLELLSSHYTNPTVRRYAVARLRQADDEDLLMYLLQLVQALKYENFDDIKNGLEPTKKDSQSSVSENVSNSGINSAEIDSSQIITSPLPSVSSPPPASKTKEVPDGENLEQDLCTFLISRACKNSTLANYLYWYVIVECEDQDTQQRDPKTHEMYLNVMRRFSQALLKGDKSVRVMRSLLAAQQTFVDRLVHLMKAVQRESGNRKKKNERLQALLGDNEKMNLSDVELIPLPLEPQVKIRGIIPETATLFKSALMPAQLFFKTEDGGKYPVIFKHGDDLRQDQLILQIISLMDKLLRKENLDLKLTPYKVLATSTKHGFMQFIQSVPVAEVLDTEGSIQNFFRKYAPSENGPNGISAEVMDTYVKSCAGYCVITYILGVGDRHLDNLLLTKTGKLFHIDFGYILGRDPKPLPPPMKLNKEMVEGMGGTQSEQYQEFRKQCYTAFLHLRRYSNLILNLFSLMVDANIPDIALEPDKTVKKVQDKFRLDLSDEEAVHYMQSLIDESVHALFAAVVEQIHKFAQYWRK
Experimental: Dilution series of compounds of the invention were prepared in DMSO at 100 times the final assay concentration (n1=n0/3 in 10 points). The compounds were further diluted to 4 times the assay concentration in assay buffer (Life technologies buffer Q, PV5125, diluted 5 times supplemented with 2 mM DTT and 2 mM MnCl2). 2.5 μl of the diluted compounds were added to a 384 well assay plate followed by 2.5 μl of 16.5 nM Vps34 enzyme (Life technologies, PV5126). Enzyme and compounds were pre-incubated at rt for 15 min. Then 5 μl of substrate mix containing 20 μM ATP (Life technologies, PV3227) and 200 μM PI:PS substrate (Life technologies, PV5122) in assay buffer was added to the wells containing compound and enzyme. Mixing was performed by pipetting several times. The reaction was incubated at room temperature for 1 h. Then 5 μl stop-detection mix, prepared as described in the Adapta kinase assay kit instructions (Life technologies, PV5099) containing Adapta Eu-anti-ADP antibody (2.3 nM), Alexa Fluor 647 ADP tracer (9 nM) and EDTA (30 mM) in TR-FRET buffer, was added to quench the reaction. Mixing was performed by pipetting several times. The assay plate was then incubated at room temperature for 30 min and read with Artemis micro plate reader. Percent inhibition of the compounds as compared to DMSO treated control samples was calculated. By the use of Dotmatics software compound concentration versus percent inhibition was fitted to generate IC50 values.

| SMILES | IC50 [1] | IC50 (Vps34 enzyme) |
| --- | --- | --- |
| CC(=O)Nc1cc(-c2cc(-c3ccccc3Cl)[nH]c(=O)c2)ccn1 [Example 1, N-[4-[2-(2-chlorophenyl)-6-oxo-1H-pyridin-4-yl]-2-pyridyl]acetamide] | 0.026 µM |  |
| Nc1cc(-c2cc(-c3cccnc3)[nH]c(=O)c2)ccn1 [Example 5, 4-(2-Amino-4-pyridyl)-6-(3-pyridyl)-1H-pyridin-2-one] |  | 410 nM |
| Nc1cc(-c2cc(-c3ccccc3Cl)[nH]c(=O)c2)ccn1 [Example 11, 4-(2-Amino-4-pyridyl)-6-(2-chlorophenyl)-1H-pyridin-2-one] | 0.742 µM | 45 nM |
| COCC(=O)Nc1cc(-c2cc(-c3ccccc3Cl)[nH]c(=O)c2)ccn1 [Example 12, N-[4-[2-(2-chlorophenyl)-6-oxo-1H-pyridin-4-yl]-2-pyridyl]-2-methoxy-acetamide] | 0.147 µM | 7 nM |
| CC(=O)Nc1cc(-c2cc(N3CCCCC3C(F)(F)F)[nH]c(=O)c2)ccn1 (stereo not drawn) [Example 19, N-[4-[2-oxo-6-[2-(trifluoromethyl)-1-piperidyl]-1H-pyridin-4-yl]-2-pyridyl]acetamide] | 0.067 µM | 12 nM |
| O=C(Nc1cc(-c2cc(N3CCCCC3C(F)(F)F)[nH]c(=O)c2)ccn1)C1CC1 (stereo not drawn) [Example 21, N-[4-[2-oxo-6-[2-(trifluoromethyl)-1-piperidyl]-1H-pyridin-4-yl]-2-pyridyl]cyclopropanecarboxamide] | 0.016 µM | < 5 nM |
| CC(=O)Nc1cc(-c2cc(N3CCOCC3C(F)(F)F)[nH]c(=O)c2)ccn1 (stereo not drawn) [Example 26, N-[4-[2-oxo-6-[3-(trifluoromethyl)morpholin-4-yl]-1H-pyridin-4-yl]-2-pyridyl]acetamide] | 0.113 µM | < 5 nM |
| CCS(=O)(=O)N1CCN(c2cc(-c3ccnc(NC(C)=O)c3)cc(=O)[nH]2)C(C(F)(F)F)C1 (stereo not drawn) [Example 30, N-[4-[2-[4-ethylsulfonyl-2-(trifluoromethyl)piperazin-1-yl]-6-oxo-1H-pyridin-4-yl]-2-pyridyl]acetamide] | 0.02 µM | < 5 nM |
| CC(=O)Nc1cc(-c2cc(N3CCOCC3C3CC3)[nH]c(=O)c2)ccn1 (stereo not drawn) [Example 32, N-[4-[2-(3-cyclopropylmorpholin-4-yl)-6-oxo-1H-pyridin-4-yl]-2-pyridyl]acetamide] |  | 5 nM |
| CC(=O)Nc1cc(-c2cc(-c3ccccc3C(F)(F)F)[nH]c(=O)c2)ccn1 [Example 34, N-[4-[2-oxo-6-[2-(trifluoromethyl)phenyl]-1H-pyridin-4-yl]-2-pyridyl]acetamide] | 0.063 µM | < 5 nM |
| CC(=O)Nc1cc(-c2cc(-c3cccnc3C(F)(F)F)[nH]c(=O)c2)ccn1 [Example 36, N-[4-[2-oxo-6-[2-(trifluoromethyl)-3-pyridyl]-1H-pyridin-4-yl]-2-pyridyl]acetamide] | 0.092 µM | < 5 nM |
| CC(=O)Nc1cc(-c2cc(-c3cccnc3C)[nH]c(=O)c2)ccn1 [Example 38, N-[4-[2-(2-methyl-3-pyridyl)-6-oxo-1H-pyridin-4-yl]-2-pyridyl]acetamide] |  | < 5 nM |
| CC(=O)Nc1cc(-c2cc(-c3cnccc3C)[nH]c(=O)c2)ccn1 [Example 40, N-[4-[2-(4-methyl-3-pyridyl)-6-oxo-1H-pyridin-4-yl]-2-pyridyl]acetamide] |  | < 5 nM |
| CC(=O)Nc1cc(-c2cc(-c3cscc3C(F)(F)F)[nH]c(=O)c2)ccn1 [Example 42, N-[4-[2-oxo-6-[4-(trifluoromethyl)-3-thienyl]-1H-pyridin-4-yl]-2-pyridyl]acetamide] | 0.046 µM | < 5 nM |
| CCn1cc(-c2cc(-c3ccnc(NC(C)=O)c3)cc(=O)[nH]2)c(C(F)(F)F)n1 [Example 44, N-[4-[2-[1-ethyl-3-(trifluoromethyl)pyrazol-4-yl]-6-oxo-1H-pyridin-4-yl]-2-pyridyl]acetamide] | 0.138 µM | < 5 nM |
| COC(=O)Nc1cc(-c2cc(N3CCOCC3C(F)(F)F)[nH]c(=O)c2)ccn1 (stereo not drawn) [Example 45, Methyl N-[4-[2-oxo-6-[3-(trifluoromethyl)morpholin-4-yl]-1H-pyridin-4-yl]-2-pyridyl]carbamate] | 0.023 µM | < 5 nM |
| COC(=O)Nc1cc(-c2cc(-c3ccccc3C(F)(F)F)[nH]c(=O)c2)ccn1 [Example 48, Methyl N-[4-[2-oxo-6-[2-(trifluoromethyl)phenyl]-1H-pyridin-4-yl]-2-pyridyl]carbamate] | 0.02 µM | < 5 nM |
| COC(=O)Nc1cc(-c2cc(-c3ccccc3Cl)[nH]c(=O)c2)ccn1 [Example 50, Methyl N-[4-[2-(2-chlorophenyl)-6-oxo-1H-pyridin-4-yl]-2-pyridyl]carbamate] | 0.029 µM | < 5 nM |
| COC(=O)Nc1cc(-c2cc(-c3cccnc3C(F)(F)F)[nH]c(=O)c2)ccn1 [Example 52, Methyl N-[4-[2-oxo-6-[2-(trifluoromethyl)-3-pyridyl]-1H-pyridin-4-yl]-2-pyridyl]carbamate] | 0.022 µM | < 5 nM |
| CCn1cc(-c2cc(-c3ccnc(NC(=O)OC)c3)cc(=O)[nH]2)c(C(F)(F)F)n1 [Example 54, Methyl N-[4-[2-[1-ethyl-3-(trifluoromethyl)pyrazol-4-yl]-6-oxo-1H-pyridin-4-yl]-2-pyridyl]carbamate] | 0.105 µM | < 5 nM |
| CN(C)C(=O)Nc1cc(-c2cc(-c3ccccc3C(F)(F)F)[nH]c(=O)c2)ccn1 [Example 62, 1,1-Dimethyl-3-[4-[2-oxo-6-[2-(trifluoromethyl)phenyl]-1H-pyridin-4-yl]-2-pyridyl]urea] |  | 50 nM |
| O=C(Nc1cc(-c2cc(-c3ccccc3C(F)(F)F)[nH]c(=O)c2)ccn1)N1CCCC1 [Example 66, N-[4-[2-oxo-6-[2-(trifluoromethyl)phenyl]-1H-pyridin-4-yl]-2-pyridyl]pyrrolidine-1-carboxamide] |  | 147 nM |
| COC(C)(C)C1CCCN1c1cc(-c2ccnc(NC(C)=O)c2)cc(=O)[nH]1 (stereo not drawn) [Example 68, N-[4-[2-[2-(1-methoxy-1-methyl-ethyl)pyrrolidin-1-yl]-6-oxo-1H-pyridin-4-yl]-2-pyridyl]acetamide] |  | 26 nM |
| COC(=O)Nc1cc(-c2cc(N3CCCCC3C(F)(F)F)[nH]c(=O)c2)ccn1 (stereo not drawn) [Example 70, Methyl N-[4-[2-oxo-6-[2-(trifluoromethyl)-1-piperidyl]-1H-pyridin-4-yl]-2-pyridyl]carbamate] |  | < 5 nM |
